Data from patent US8258130B2 (Sanofi, priority 2007, dated 2012).

Target: human h-PGDS (Homo sapiens, UniProt O60760)
Experiment: Enzyme Immunoassay (EIA) method, inhibition of hematopoietic PGD2 synthase
Type: biochemical
Details: EIA assay, PGD2 formed from PGH2 by human h-PGDS
Description: Assay 2: Enzyme Immunoassay (EIA) Method
• a. Preparation of 0.1M K2HPO4/KH2PO4 buffer (pH 7.4) • Prepare 0.1 M KH2PO4 from 1M KH2PO4 (Sigma, Cat# P-8709) • Prepare 0.1 M K2HPO4 from powder of K2HPO4 (Fisher, BP363-500) • Mix 0.1 M K2HPO4 with 0.1 M KH2PO4 to adjust pH to 7.4. • b. Preparation of 0.5% γ-globulin • Add 0.1 g of γ-globulin (Sigma, Cat# G-5009) to 20 mL 0.1 M K2HPO4/KH2PO4 buffer (pH 7.4) and make 1-mL/vial aliquots and store in −80° C. • c. Preparation of 100 mM GSH • Add 307 mg of GSH (Sigma, Cat# G-6529) to 10 mL 0.1 M K2HPO4/KH2PO4 buffer (pH 7.4) and store at −80° C. • d. Preparation of Reaction buffer: • 198 mL of 0.1M K2HPO4/KH2PO4 buffer (pH 7.4) • 2 mM GSH—Prepared from 100 mM GSH • 0.4 g Glycerol • 2 mL of 0.5% γ-globulin • Add 0.4 g of glycerol and 2 mL of 0.5% γ-globulin to 198 mL of 0.1 M K2HPO4/KH2PO4 • buffer (pH7.4). • Add 0.4 mL of 100 mM GSH to 19.6 mL reaction buffer before the assay (enough for two 96-well plates). • e. Preparation of FeCl2/citric acid stopping solution: (8 mg/mL FeCl2, 0.1 M citric acid) • Add 40 mg fresh FeCl2 (IGN, Cat# 158046) to 5 mL 0.1 M citric acid (Sigma, Cat# C0759). • f. Preparation of MOX reagent: • 10% EtOH—Add 1 mL of EtOH to 9 mL of ultra pure H2O • Dissolve 0.1 g of methoxyl amine (Cayman, Cat# 400036/) in 10% EtOH (10 mL). • Add 0.82 g of sodium acetate (Cayman, Cat#400037) to MOX solution and dissolve. II. Materials and Method • Dimethylsulfoxide (DMSO; Sigma; Cat# D2650) • Prostaglandin D2-MOX express EIA kit (Caymen Chemical, Catalog No. 500151)
Before the assay, cool down 10 mL of acetone in polypropylene tubes and empty 96 well plates in ice. All the procedures except compound dilution are performed on ice.
• 1. Dilute compound in DMSO
• 2. Dilute 2 μL of each above concentration of compound to 38 μL of reaction buffer in 96-well plates and mix. IV. Enzyme and Substrate Solution Preparation • 1 Preparation of 0.39 ng/μL enzyme solution (0.35 ng/μL at final after compound addition). • Mix 4 μL of 4 mg/mL human h-PGDS with 396 μL of reaction buffer (to give enzyme concentration 40 μg/mL). Add 46.8 μL of 40 μg/mL h-PGDS to 4.753 mL of reaction buffer to give a total volume of 4.8 mL • 2. Preparation of Substrate Solution (PGH2): Add 0.375 mL of 0.1 mg/mL of PGH2 to 1.625 mL acetone. V. Enzyme Reaction: • 1. Add 60 μL of enzyme solution to compound well and positive control (without compound) in U-bottom polypropylene plate on ice. • 2. Add 60 μL of reaction buffer and 6.6 μL of 5% DMSO in reaction buffer into negative control wells in the plate. • 3. Add 6.6 μL of diluted compound in reaction buffer to the compound wells and mix. • 4. Add 6.6 μL of 5% DMSO in reaction buffer to the positive control well. • 5. Incubate the plate in ice for at least 30 min. • 6. Add 20 μL of substrate (PGH2) solution to compound, negative and positive control wells in the U-bottom 96 well plate on ice. • 7. Dry the plate in cold room for about 25-28 min. • 8. Pipette 45 μL of enzyme solution (above) into 96-wells with dried PGH2 and mix 3 times. Incubate on the ice for 1 min. • 9. Add 45 μL of FeCl2 solution into each wells and mix. • 10. Add 90 μL of MOX solution and mix. • 11. Incubate for 30 min at 60° C. • 12. Dilute the samples 2500× with EIA buffer. VI. EIA Assay • Perform the assay according to the procedure in EIA kit provided by Cayman. Total PGD2 levels (pg/mL) were determined in the samples by EIA kits (Caymen Chemical, Catalog No. 500151) Calculate Amount of PGD2 as Below • Calculated % Positive control according to the equation below; % Positive control=(Compound value−Negative control)/(Positive value−Negative control value)×100. […]

Sequence of human h-PGDS (O60760 whole entry): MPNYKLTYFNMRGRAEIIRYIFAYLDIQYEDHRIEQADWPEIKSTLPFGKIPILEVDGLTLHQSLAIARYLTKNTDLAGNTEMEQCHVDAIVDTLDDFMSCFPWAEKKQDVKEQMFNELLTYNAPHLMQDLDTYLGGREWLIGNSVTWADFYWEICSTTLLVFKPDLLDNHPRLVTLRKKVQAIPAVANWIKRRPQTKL

SMILES	IC50
Cc1nc(-c2ccccn2)ncc1C(=O)Nn1cc(C)c2cc(F)ccc21 [Example 3, 4-Methyl-2-pyridin-2-yl-pyrimidine-5-carboxylic acid (5-fluoro-3-methyl-indol-1-yl)amide]	7 nM
Cc1cn(NC(=O)c2cnc(-c3cccnc3)nc2)c2ccc(F)cc12 [Example 6, 2-Pyridin-3-yl-pyrimidine-5-carboxylic acid (5-fluoro-3-methyl-indol-1-yl)-amide]	10 nM
Cc1nc(-c2cccc(F)c2)ncc1C(=O)Nn1cc(C)c2cc(F)ccc21 [Example 10, 2-(3-Fluoro-phenyl)-4-methyl-pyrimidine-5-carboxylic acid (5-fluoro-3-methyl-indol-1-yl)-amide]	6 nM
Cc1nc(-c2ccccn2)ncc1C(=O)Nn1c(C)cc2cc(F)ccc21 [Example 12, 4-Methyl-2-pyridin-2-yl-pyrimidine-5-carboxylic acid (5-fluoro-2-methyl-indol-1-yl)-amide]	8 nM
O=C(NN1CCN(C(=O)OCc2ccccc2)CC1=O)c1cnc(-c2ccccc2)nc1 [Example 20, 3-Oxo-4-[(2-phenyl-pyrimidine-5-carbonyl)-amino]-piperazine-1-carboxylic acid benzyl ester]	104 nM
O=C(Nn1ccc2c(F)cccc21)c1cnc(-c2cccc(F)c2)nc1 [Example 31, 2-(3-Fluorophenyl)pyrimidine-5-carboxylic acid-(4-fluoroindol-1-yl)amide]	11 nM
Cc1nc(-c2cccc(F)c2)ncc1C(=O)Nn1cc(-c2nnn[nH]2)c2cc(F)ccc21 [Example 42, 2-(3-Fluoro-phenyl)-4-methyl-pyrimidine-5-carboxylic acid [5-fluoro-3-(1H-tetrazol-5-yl)-indol-1-yl]-amide]	5 nM
O=C(Nn1cnnc1)c1cnc(-c2ccccc2)nc1 [Example 43, 2-Phenyl-pyrimidine-5-carboxylic acid [1,2,4]triazol-4-ylamide]	263 nM
O=C(NNc1ccccc1F)c1cnc(-c2ccccc2)nc1 [Example 45, 2-Phenyl-pyrimidine-5-carboxylic acid N′-(2-fluoro-phenyl)-hydrazide]	12 nM
O=C(NN1CCOCC1=O)c1cnc(-c2ccccc2)nc1 [Example 47, 2-Phenyl-pyrimidine-5-carboxylic acid (3-oxo-morpholin-4-yl)-amide]	55 nM
Cc1nc(-c2ncc(C(=O)NN3CCN(CCO)CC3)cn2)no1 [Example 48, 2-(5-Methyl-[1,2,4]oxadiazol-3-yl)-pyrimidine-5-carboxylic acid [4-(2-hydroxy-ethyl)-piperazin-1-yl]-amide]	461 nM
O=C(NN1CCOCC1)c1cnc(C(=O)c2ccccc2)nc1 [Example 50, 2-Benzoyl-pyrimidine-5-carboxylic acid morpholin-4-ylamide]	342 nM
O=C(NN1CCN(CCO)CC1)c1cnc(C(=O)c2ccccc2)nc1 [Example 51, 2-Benzoyl-pyrimidine-5-carboxylic acid [4-(2-hydroxy-ethyl)-piperazin-1-yl]-amide]	665 nM
O=C(NN1CCCCC1=O)c1cnc(-c2ccccc2)nc1 [Example 56, 2-Phenyl-pyrimidine-5-carboxylic acid N′-(2-oxo-piperidin-1-yl)-amide]	55 nM
CN(NC(=O)c1cnc(-c2ccccc2)nc1)C1CCCCC1 [Example 57, 2-Phenyl-pyrimidine-5-carboxylic acid N′-cyclohexyl-N′-methyl-hydrazide]	147 nM
O=C(NN1CCOCC1)c1cnc(Oc2ccccc2)nc1 [Example 58, 2-Phenyoxy-pyrimidine-5-carboxylic acid N′-morpholin-4-yl-amide]	227 nM
COc1cccc(-c2ncc(C(=O)NN3CC(C)=NNC3=O)cn2)c1 [Example 59, 2-(3-Methoxy-phenyl)-pyrimidine-5-carboxylic acid (6-methyl-3-oxo-2,5-dihydro-3H-[1,2,4]triazin-4-yl)-amide]	175 nM
O=C(Nn1cc(Br)c(=O)[nH]c1=O)c1cnc(-c2ccccc2)nc1 [Example 72, 2-Phenyl-pyrimidine-5-carboxylic acid (5-bromo-2,4-dioxo-3,4-dihydro-2H-pyrimidin-1-yl)-amide]	108 nM
O=C(NN1CC(CN2CCOCC2)OC1=O)c1cnc(-c2ccccc2)nc1 (stereo not drawn) [Example 75, 2-Phenyl-pyrimidine-5-carboxylic acid (5-morpholin-4-ylmethyl-2-oxo-oxazolidin-3-yl)-amide]	20 nM
O=C(NN1CCOC1=O)c1cnc(-c2ccccc2)nc1 [Example 77, 2-Phenyl-pyrimidine-5-carboxylic acid (2-oxo-oxazolidin-3-yl)-amide]	49 nM
O=C(NN1CCc2ccccc21)c1cnc(-c2ccccc2)nc1 [Example 82, 2-Phenyl-pyrimidine-5-carboxylic acid (2,3-dihydro-indol-1-yl)-amide]	2 nM
O=C(NN1CCN(C2CCOC2=O)CC1)c1cnc(-c2ccccc2)nc1 (stereo not drawn) [Example 87, 2-Phenyl-pyrimidine-5-carboxylic acid [4-(2-oxo-tetrahydro-furan-3-yl)-piperazin-1-yl]-amide]	26 nM
O=C(NN1CCN(C(=O)C(F)(F)F)CC1)c1cnc(-c2ccccc2)nc1 [Example 88, 2-Phenyl-pyrimidine-5-carboxylic acid [4-(2,2,2-trifluoro-acetyl)-piperazin-1-yl]-amide]	57 nM
O=C(NN1CCN(CC(=O)N2CCOCC2)CC1)c1cnc(-c2ccccc2)nc1 [Example 90, 2-Phenyl-pyrimidine-5-carboxylic acid [4-(2-morpholin-4-yl-2-oxo-ethyl)-piperazin-1-yl]-amide]	832 nM
O=C(NN1CCc2ccccc21)c1cnc(-c2cccc(F)c2)nc1 [Example 91, 2-(3-Fluoro-phenyl)-pyrimidine-5-carboxylic acid (2,3-dihydro-indol-1-yl)-amide]	3 nM
O=C(NN1CCCCC1)c1cnc(-c2cccc(F)c2)nc1 [Example 92, 2-(3-Fluoro-phenyl)-pyrimidine-5-carboxylic acid piperadin-1-yl-amide]	19.5 nM
Cc1nc(-c2ccccc2)ncc1C(=O)NN1CCc2ccccc21 [Example 95, 4-Methyl-2-phenyl-pyrimidine-5-carboxylic acid (2,3-dihydro-indol-1-yl)-amide]	5.5 nM
CC1Cc2ccccc2N1NC(=O)c1cnc(-c2ccccc2)nc1 (stereo not drawn) [Example 99, 2-Phenyl-pyrimidine-5-carboxylic acid (2-methyl-2,3-dihydro-indol-1-yl)-amide]	4 nM
CC1Cc2ccccc2N1NC(=O)c1cnc(-c2cccc(F)c2)nc1 (stereo not drawn) [Example 100, 2-(3-Fluoro-phenyl)-pyrimidine-5-carboxylic acid (2-methyl-2,3-dihydro-indol-1-yl)-amide]	4 nM
O=C(Nn1ccc2cc(F)ccc21)c1cnc(-c2ccccc2)nc1 [Example 102, 2-Phenyl-pyrimidine-5-carboxylic acid (5-fluoro-indol-1-yl)-amide]	3 nM
